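Interpolation was linear, between the two tested concentrations surrounding the appropriate level; five concentrations were tested over 48 hours in 96-well plates. TGI: total growth inhibition.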
Key:
Test in all cases: NCI anticancer screen, dose series, 48 h
786-0 renal = tested on: 786-0 renal
A498 renal = tested on: A498 renal
A549 NSCLC = tested on: A549 NSCLC
CAKI-1 renal = tested on: CAKI-1 renal
CCRF-CEM leukemia = tested on: CCRF-CEM leukemia
COLO 205 colon = tested on: COLO 205 colon
DLD-1 colon = tested on: DLD-1 colon
DMS 114 small cell lung = tested on: DMS 114 small cell lung
DMS 273 small cell lung = tested on: DMS 273 small cell lung
EKVX NSCLC = tested on: EKVX NSCLC
HCT-15 colon = tested on: HCT-15 colon
HL-60(TB) leukemia = tested on: HL-60(TB) leukemia
HOP-18 NSCLC = tested on: HOP-18 NSCLC
HOP-62 NSCLC = tested on: HOP-62 NSCLC
HOP-92 NSCLC = tested on: HOP-92 NSCLC
HT29 colon = tested on: HT29 colon
IGROV1 ovarian = tested on: IGROV1 ovarian
KM20L2 colon = tested on: KM20L2 colon
LOX IMVI melanoma = tested on: LOX IMVI melanoma
M14 melanoma = tested on: M14 melanoma
M19-MEL melanoma = tested on: M19-MEL melanoma
NCI-H23 lung = tested on: NCI-H23 lung
NCI-H460 lung = tested on: NCI-H460 lung
NCI-H522 lung = tested on: NCI-H522 lung
OVCAR-8 ovarian = tested on: OVCAR-8 ovarian
RPMI-8226 leukemia = tested on: RPMI-8226 leukemia
RXF 393 renal = tested on: RXF 393 renal
SF-268 CNS = tested on: SF-268 CNS
SF-539 CNS = tested on: SF-539 CNS
SK-MEL-28 melanoma = tested on: SK-MEL-28 melanoma
SK-MEL-5 melanoma = tested on: SK-MEL-5 melanoma
SK-OV-3 ovarian = tested on: SK-OV-3 ovarian
SNB-19 CNS = tested on: SNB-19 CNS
SW-620 colon = tested on: SW-620 colon
TK-10 renal = tested on: TK-10 renal
U251 CNS = tested on: U251 CNS
UACC-62 melanoma = tested on: UACC-62 melanoma
UO-31 renal = tested on: UO-31 renal
XF 498 CNS = tested on: XF 498 CNS
ACHN renal = tested on: ACHN renal
HCC-2998 colon = tested on: HCC-2998 colon
HCT-116 colon = tested on: HCT-116 colon
K-562 leukemia = tested on: K-562 leukemia
KM12 colon = tested on: KM12 colon
LXFL 529 NSCLC = tested on: LXFL 529 NSCLC
MALME-3M melanoma = tested on: MALME-3M melanoma
MOLT-4 leukemia = tested on: MOLT-4 leukemia
NCI-H226 lung = tested on: NCI-H226 lung
OVCAR-3 ovarian = tested on: OVCAR-3 ovarian
OVCAR-4 ovarian = tested on: OVCAR-4 ovarian
OVCAR-5 ovarian = tested on: OVCAR-5 ovarian
SF-295 CNS = tested on: SF-295 CNS
SK-MEL-2 melanoma = tested on: SK-MEL-2 melanoma
SN12C renal = tested on: SN12C renal
SNB-75 CNS = tested on: SNB-75 CNS
SNB-78 CNS = tested on: SNB-78 CNS
UACC-257 melanoma = tested on: UACC-257 melanoma
SR leukemia = tested on: SR leukemia

## Cc1nc2ccccc2c(=O)n1/N=C(\N=Nc1ccccc1Cl)c1ccccc1
786-0 renal
  TGI: 36.7 µM
A498 renal
  TGI: > 100 µM
A549 NSCLC
  TGI: > 100 µM
CAKI-1 renal
  TGI: 43 µM
CCRF-CEM leukemia
  TGI: 55.2 µM
COLO 205 colon
  TGI: 49.2 µM
DLD-1 colon
  TGI: > 100 µM
DMS 114 small cell lung
  TGI: 37.8 µM
DMS 273 small cell lung
  TGI: > 100 µM
EKVX NSCLC
  TGI: 78.3 µM
HCT-15 colon
  TGI: > 100 µM
HL-60(TB) leukemia
  TGI: 38.3 µM
HOP-18 NSCLC
  TGI: > 100 µM
HOP-62 NSCLC
  TGI: > 100 µM
HOP-92 NSCLC
  TGI: > 100 µM
HT29 colon
  TGI: 47.6 µM
IGROV1 ovarian
  TGI: 38.9 µM
KM20L2 colon
  TGI: 48.7 µM
LOX IMVI melanoma
  TGI: 97.9 µM
M14 melanoma
  TGI: 97.7 µM
M19-MEL melanoma
  TGI: 67.2 µM
NCI-H23 lung
  TGI: > 100 µM
NCI-H460 lung
  TGI: > 100 µM
NCI-H522 lung
  TGI: 60.9 µM
OVCAR-8 ovarian
  TGI: > 100 µM
RPMI-8226 leukemia
  TGI: 49.2 µM
RXF 393 renal
  TGI: 85.3 µM
SF-268 CNS
  TGI: > 100 µM
SF-539 CNS
  TGI: 43.1 µM
SK-MEL-28 melanoma
  TGI: > 100 µM
SK-MEL-5 melanoma
  TGI: 41.9 µM
SK-OV-3 ovarian
  TGI: > 100 µM
SNB-19 CNS
  TGI: > 100 µM
SW-620 colon
  TGI: 63.9 µM
TK-10 renal
  TGI: > 100 µM
U251 CNS
  TGI: > 100 µM
UACC-62 melanoma
  TGI: 46.6 µM
UO-31 renal
  TGI: > 100 µM
XF 498 CNS
  TGI: 45.7 µM

## CC1NCCc2c1[nH]c1cc(O)ccc21 (centres undefined)
786-0 renal
  TGI: > 100 µM
A498 renal
  TGI: > 100 µM
A549 NSCLC
  TGI: > 100 µM
ACHN renal
  TGI: > 100 µM
CAKI-1 renal
  TGI: > 100 µM
CCRF-CEM leukemia
  TGI: > 100 µM
COLO 205 colon
  TGI: > 100 µM
DLD-1 colon
  TGI: > 100 µM
DMS 114 small cell lung
  TGI: > 100 µM
EKVX NSCLC
  TGI: > 100 µM
HCC-2998 colon
  TGI: > 100 µM
HCT-116 colon
  TGI: > 100 µM
HCT-15 colon
  TGI: > 100 µM
HL-60(TB) leukemia
  TGI: > 100 µM
HOP-18 NSCLC
  TGI: > 100 µM
HOP-62 NSCLC
  TGI: > 100 µM
HOP-92 NSCLC
  TGI: > 100 µM
HT29 colon
  TGI: > 100 µM
IGROV1 ovarian
  TGI: > 100 µM
K-562 leukemia
  TGI: > 100 µM
KM12 colon
  TGI: > 100 µM
KM20L2 colon
  TGI: > 100 µM
LOX IMVI melanoma
  TGI: > 100 µM
LXFL 529 NSCLC
  TGI: > 100 µM
M14 melanoma
  TGI: > 100 µM
M19-MEL melanoma
  TGI: > 100 µM
MALME-3M melanoma
  TGI: > 100 µM
MOLT-4 leukemia
  TGI: > 100 µM
NCI-H226 lung
  TGI: > 100 µM
NCI-H23 lung
  TGI: > 100 µM
NCI-H460 lung
  TGI: > 100 µM
OVCAR-3 ovarian
  TGI: > 100 µM
OVCAR-4 ovarian
  TGI: > 100 µM
OVCAR-5 ovarian
  TGI: > 100 µM
OVCAR-8 ovarian
  TGI: > 100 µM
RPMI-8226 leukemia
  TGI: > 100 µM
RXF 393 renal
  TGI: > 100 µM
SF-268 CNS
  TGI: > 100 µM
SF-295 CNS
  TGI: > 100 µM
SF-539 CNS
  TGI: > 100 µM
SK-MEL-2 melanoma
  TGI: > 100 µM
SK-MEL-28 melanoma
  TGI: > 100 µM
SK-MEL-5 melanoma
  TGI: > 100 µM
SK-OV-3 ovarian
  TGI: > 100 µM
SN12C renal
  TGI: > 100 µM
SNB-19 CNS
  TGI: > 100 µM
SNB-75 CNS
  TGI: > 100 µM
SNB-78 CNS
  TGI: > 100 µM
SW-620 colon
  TGI: > 100 µM
TK-10 renal
  TGI: > 100 µM
UACC-257 melanoma
  TGI: > 100 µM
UACC-62 melanoma
  TGI: > 100 µM
UO-31 renal
  TGI: > 100 µM
XF 498 CNS
  TGI: > 100 µM

## O=C(/C=N/O)Nc1ccc(Cl)c(I)c1
786-0 renal
  TGI: 88.4 µM
A549 NSCLC
  TGI: 94 µM
ACHN renal
  TGI: 85.2 µM
CAKI-1 renal
  TGI: 45.2 µM
CCRF-CEM leukemia
  TGI: 94.8 µM
COLO 205 colon
  TGI: 31.7 µM
DLD-1 colon
  TGI: > 100 µM
DMS 114 small cell lung
  TGI: 50 µM
DMS 273 small cell lung
  TGI: 41.9 µM
EKVX NSCLC
  TGI: 63.9 µM
HCC-2998 colon
  TGI: 33.7 µM
HCT-116 colon
  TGI: 25.5 µM
HCT-15 colon
  TGI: 63.9 µM
HL-60(TB) leukemia
  TGI: 54.1 µM
HOP-62 NSCLC
  TGI: 70.7 µM
HT29 colon
  TGI: > 100 µM
IGROV1 ovarian
  TGI: 39.2 µM
K-562 leukemia
  TGI: > 100 µM
KM12 colon
  TGI: 68.3 µM
KM20L2 colon
  TGI: > 100 µM
LOX IMVI melanoma
  TGI: 31.4 µM
LXFL 529 NSCLC
  TGI: 42.1 µM
M14 melanoma
  TGI: 43.7 µM
M19-MEL melanoma
  TGI: 60.9 µM
MALME-3M melanoma
  TGI: 64.2 µM
MOLT-4 leukemia
  TGI: 56.5 µM
NCI-H226 lung
  TGI: 17.8 µM
NCI-H23 lung
  TGI: 42.3 µM
NCI-H460 lung
  TGI: 47.2 µM
NCI-H522 lung
  TGI: 34.6 µM
OVCAR-3 ovarian
  TGI: 60.3 µM
OVCAR-4 ovarian
  TGI: > 100 µM
OVCAR-5 ovarian
  TGI: 62.2 µM
OVCAR-8 ovarian
  TGI: > 100 µM
RPMI-8226 leukemia
  TGI: 77.8 µM
RXF 393 renal
  TGI: 46.7 µM
SF-268 CNS
  TGI: 69.2 µM
SF-295 CNS
  TGI: 94.8 µM
SK-MEL-2 melanoma
  TGI: 31.3 µM
SK-MEL-28 melanoma
  TGI: 72.6 µM
SK-MEL-5 melanoma
  TGI: 35.2 µM
SK-OV-3 ovarian
  TGI: 56 µM
SN12C renal
  TGI: 63.9 µM
SNB-19 CNS
  TGI: 83.9 µM
SR leukemia
  TGI: 61.2 µM
SW-620 colon
  TGI: > 100 µM
TK-10 renal
  TGI: > 100 µM
U251 CNS
  TGI: 39.4 µM
UACC-257 melanoma
  TGI: > 100 µM
UACC-62 melanoma
  TGI: 35.4 µM
UO-31 renal
  TGI: 33.1 µM
XF 498 CNS
  TGI: 64.8 µM

## CN(C)CCC(/C=C/c1ccccc1)=N\Nc1ccc(Cl)cc1
786-0 renal
  TGI: 6.26 µM
A498 renal
  TGI: 21.8 µM
A549 NSCLC
  TGI: 7.34 µM
ACHN renal
  TGI: 5.15 µM
CCRF-CEM leukemia
  TGI: 11 µM
COLO 205 colon
  TGI: 16.5 µM
DLD-1 colon
  TGI: 11.1 µM
DMS 114 small cell lung
  TGI: 5.9 µM
DMS 273 small cell lung
  TGI: 4.66 µM
EKVX NSCLC
  TGI: 11.4 µM
HCC-2998 colon
  TGI: 3.53 µM
HCT-116 colon
  TGI: 13.7 µM
HCT-15 colon
  TGI: 15.2 µM
HL-60(TB) leukemia
  TGI: 5.32 µM
HOP-18 NSCLC
  TGI: 17 µM
HOP-62 NSCLC
  TGI: 4.07 µM
HOP-92 NSCLC
  TGI: 8.82 µM
HT29 colon
  TGI: 13.9 µM
IGROV1 ovarian
  TGI: 7.53 µM
K-562 leukemia
  TGI: 5.02 µM
KM12 colon
  TGI: 10.9 µM
KM20L2 colon
  TGI: 3.62 µM
LOX IMVI melanoma
  TGI: 3.57 µM
LXFL 529 NSCLC
  TGI: 9.26 µM
M14 melanoma
  TGI: 12.5 µM
M19-MEL melanoma
  TGI: 19.7 µM
MALME-3M melanoma
  TGI: 26.2 µM
MOLT-4 leukemia
  TGI: 5.43 µM
NCI-H23 lung
  TGI: 20.9 µM
NCI-H460 lung
  TGI: 4.29 µM
NCI-H522 lung
  TGI: 7.77 µM
OVCAR-3 ovarian
  TGI: 22.5 µM
OVCAR-4 ovarian
  TGI: 21.7 µM
OVCAR-5 ovarian
  TGI: 2.89 µM
OVCAR-8 ovarian
  TGI: 14 µM
RPMI-8226 leukemia
  TGI: 4.69 µM
RXF 393 renal
  TGI: 20.9 µM
SF-268 CNS
  TGI: 6.56 µM
SF-295 CNS
  TGI: 13.1 µM
SF-539 CNS
  TGI: 5.32 µM
SK-MEL-2 melanoma
  TGI: 4.4 µM
SK-MEL-28 melanoma
  TGI: 27.2 µM
SK-MEL-5 melanoma
  TGI: 31.5 µM
SK-OV-3 ovarian
  TGI: 13.4 µM
SN12C renal
  TGI: 7.03 µM
SNB-19 CNS
  TGI: 27.5 µM
SNB-75 CNS
  TGI: 15.6 µM
SNB-78 CNS
  TGI: 21.4 µM
SW-620 colon
  TGI: 14.7 µM
TK-10 renal
  TGI: 7.85 µM
U251 CNS
  TGI: 5.51 µM
UACC-257 melanoma
  TGI: 14.5 µM
UACC-62 melanoma
  TGI: 4.95 µM
UO-31 renal
  TGI: 4.24 µM
